Results: patent US9365499B2, “9-aminomethyl substituted tetracycline compounds” (KBP Biosciences Co., Ltd., priority 2011, dated 2016)
Converted amounts (≈) assume the structure as drawn. Read-outs that look alike come from different tables or passages of the source.

What was measured:
Acinetobacter baumannii = assay: antibacterial activity in vitro, agar dilution method; format: cell-based; details: for MIC90: Table 5, MIC90 = 90% inhibitory concentration
Procedure, shortened: (§1)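 In vitro susceptibility is tested by the agar dilution method under CLSI M7-A7; results are expressed as MIC and MIC90.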

[1] = tested on: Acinetobacter calcoaceticus; assay: as above; format: cell-based; details: Table 4
Procedure, shortened: as §1

Enterococcus faecalis = assay: as above; format: cell-based; details: Table 4
Procedure, shortened: as §1

Escherichia coli = assay: as above; format: cell-based
Procedure, shortened: as §1

Hemophilus influenzae = assay: as above; format: cell-based; details: Haemophilus influenzae; Table 5; MIC90 = 90% inhibitory concentration
Procedure, shortened: as §1

Klebsiella pneumoniae = assay: as above; format: cell-based
Procedure, shortened: as §1

[2] = tested on: Methicillin-resistant Staphycoccus epidermidis (MRSE); assay: as above; format: cell-based; details: Staphylococcus epidermidis, Table 2
Procedure, shortened: as §1

[3] = tested on: Methicillin-resistant Staphylococcus aureus (MRSA); assay: as above; format: cell-based; details: for MIC90: Table 5, MIC90 = 90% inhibitory concentration
Procedure, shortened: as §1

Staphylococcus aureus [4] = assay: as above; format: cell-based; details: for MIC90: Staphylococcus aureus, Table 5, MIC90 = 90% inhibitory concentration; for MIC: Table 10, Staphylococcus aureus of the thigh model
Procedure, shortened: as §1

[5] = tested on: Streptococcus constellatus; assay: as above; format: cell-based; details: Table 5, MIC90 = 90% inhibitory concentration
Procedure, shortened: as §1

Streptococcus pyogenes = assay: as above; format: cell-based; details: Table 2
Procedure, shortened: as §1

Streptococus agalactiae = assay: as above; format: cell-based; details: Table 4
Procedure, shortened: as §1

Staphylococcus aureus [6] = assay: bactericidal effects in vivo in neutropenic mouse thigh model with Staphylococcus aureus infection; set-up: species or system mice; details: for change values (24 h vs blank group mean 0 h) / log10 CFU for each thigh, mean ± standard deviations (24 h): 2 dose times, subcutaneous
Procedure: Bactericidal Effects of the Present Compounds In Vivo in Mouse Thigh Model with Staphylococcus aureus Infection SPF grade CD-1 (ICR) female mice housed in SPF environment, weighing 25±2 g, purchased from Beijing Vital River Laboratory Animal Technology Co., Ltd., licensed […] No: SCXK (Beijing) 2006-0009. Staphylococcus aureus: purchased from Shanghai Renji Hospital. Four days before bacterial infection, intraperitoneal (ip) injection of cyclophosphamide 150 mg/kg; 1 day before bacterial infection, intraperitoneal (ip) injection of cyclophosphamide 100 mg/kg; Picked fresh Staphylococcus aureus single colonies which were plate cultured for 18 h, and inoculated into broth and cultured at 35° C. for 18 h. The bacterial suspension was diluted with broth, and 0.5 McFarland turbidity standard indicator bacteria suspension was prepared with a McFarland turbiditor, 10-fold diluted with broth and injected into the thigh muscle of mice in an amount of 0.1 mL for each thigh. The concentration of the bacteria suspension was about 10^6-10^7 CFU/ml. The inoculum concentration was determined by an agar-plate count method. Blank Group: the animals were sacrificed by dislocation at 2 h (recorded as 0 h) after the inoculation of bacteria. Solvent group: The first administration time was set at 2 h (denoted as 0 h) after the animals were infected with bacteria, the solvent was subcutaneously administrated, the animals were sacrificed by dislocation at 24 h after the administration. Treatment group: The first administration time was set at 2 h (denoted as 0 h). […] The thigh muscle tissue was separated from the sacrificed animals, and 5 mL of sodium chloride injection was added, homogenated. The homogenate obtained were diluted series, taken 0.05 mL and inoculated to agar plates, two plates were inoculated in parallel for each gradient bacterial suspension, and incubated at 35° C. for 18 h. Observe the growth of the colonies on each plate, and select the plates with the number of colonies between 30-300 for colony count. The number of colonies was recorded as n1, n2. N represents the diluted fold. The number of colonies (units CFU) for each thigh was calculated according to the formula of “(n1+n2)/2/0.05×5×N”. A logarithm to the base 10 for the number of colonies of each thigh was calculated to obtain log10 CFU value for each thigh.

in vivo = assay: in vivo; set-up: species or system male SD rats; details: male, SD, rat
Procedure: Test animals: male SD rats, weighing 180-280 g, purchased from Beijing Vital River Laboratory Animal Technology Co., Ltd.; animal Certificate of Conformity: SCXK (Beijing) 2006-0009. Six rats were tested for each compound. the compounds of the present invention, prepared in accordance with the methods of above Examples, dissolved in physiological saline. tigecycline, dissolved in physiological saline. Administration of the compounds of the present invention: intravenous bolus injection (iv), dose: 5 mg/kg, administrating volume: 5 mL/kg; gavage (po), dose: 5 mg/kg, administrating volume: 5 mL/kg. Administration of tigecycline: gavage (po), dose: 10 mg/kg, administrating volume: 5 mL/kg. Prior to administration help but water fasting for 16 hours, 4 hours after administration to food. Compound 9: iv blood sampling time point: denoted by 0 min before administration, 5 min, 15 min, 30 min, 1 […] after administration; po blood sampling time point: denoted by 0 min before administration, 5 min, 15 min, 30 min, 1 […] after administration; Compound 20: iv blood sampling time point: 5 min, 15 min, 30 min, 1 […] after administration; po blood sampling time point: 10 min, 30 min, 1 […] after administration; Compound 23: iv blood sampling time point: denoted by 0 min before administration, 5 min, 15 min, 30 min, 1 […] after administration; po blood sampling time point: denoted by 0 min before administration, 5 min, 15 min, 30 min, 1 […] after administration; Tigecycline: iv blood sampling time point: 5 min, 15 min, 30 min, 1 h, 2 h, 4 h, 6 h, 8 h after administration; po blood sampling time point: 10 min, 30 min, 1 […] after administration. Each time point is taken around 100 μl whole blood and placed in a heparinized tube, centrifugated at 8000 rpm/min at 4° C. for 6 minutes in a low-temperature high-speed centrifuge to separate plasma, the resulting plasma was frozen at -80° C. refrigerator. Plasma samples analysis: 20 μl of plasma was taken and added 200 μl of internal standard solution, subjected to vortex for 3 minutes, then to centrifugation at 12,000 rpm/min for 5 minutes. 100 μl of supernatant was taken and analyzed using LC-MS/MS. Formula Absolute Bioavailability F%=[AUC](po)×Dose(iv)/[AUC](iv)×Dose(po)

[7] = male SD rats, 5 mg/kg iv, cited from earlier work
[8] = monkey, oral; cited from earlier work
[9] = cited from earlier work

In the case of CN(C)c1cc(CNCC(C)(C)C)c(O)c2c1C[C@H]1C[C@H]3[C@H](N(C)C)C(O)=C(C(N)=O)C(=O)[C@@]3(O)C(O)=C1C2=O [PTK-0796, reference compound], the MIC (Acinetobacter baumannii; Table 2, agar dilution, read-out: antibacterial activity MIC, Acinetbacter baumannii) is reported as 2 µg/mL (≈ 3.59 µM), the MIC (Acinetobacter baumannii; Table 4, agar dilution, read-out: antibacterial activity MIC, Acinetobacter baumannii) is reported as 4 µg/mL (≈ 7.19 µM) and the MIC90 (Acinetobacter baumannii) is reported as 8 µg/mL (≈ 14.4 µM). It also gave an MIC [1] of 0.5 µg/mL (≈ 0.898 µM), an MIC (Enterococcus faecalis) of 0.25 µg/mL (≈ 0.449 µM) and an MIC (Escherichia coli; Table 2) of 1 µg/mL (≈ 1.8 µM). It also gave an MIC (Escherichia coli; Table 4) of 4 µg/mL (≈ 7.19 µM), an MIC90 (Hemophilus influenzae) of 1 µg/mL (≈ 1.8 µM) and an MIC (Klebsiella pneumoniae; Table 2) of 4 µg/mL (≈ 7.19 µM). For the same molecule, the MIC (Klebsiella pneumoniae; Table 4) was 8 µg/mL (≈ 14.4 µM), the MIC [2] was 0.5 µg/mL (≈ 0.898 µM) and the MIC ([3]; Table 2, agar dilution) was 0.5 µg/mL (≈ 0.898 µM). It also gave an MIC ([3]; Table 4, agar dilution) of 2 µg/mL (≈ 3.59 µM), an MIC90 [3] of 2 µg/mL (≈ 3.59 µM) and an MIC90 (Staphylococcus aureus [4]) of 0.5 µg/mL (≈ 0.898 µM). It also gave an MIC (Staphylococcus aureus [4]) of 0.5 µg/mL (≈ 0.898 µM), an MIC90 [5] of 0.5 µg/mL (≈ 0.898 µM) and an MIC (Streptococcus pyogenes) of 0.25 µg/mL (≈ 0.449 µM). For the same molecule, the MIC (Streptococus agalactiae) was 0.5 µg/mL (≈ 0.898 µM), the “change values (24 h vs blank group mean 0 h)” value (shortened to “change values”) (Staphylococcus aureus [6]; 2 mg/kg/day) was 1.77 log10 CFU and the “log10 CFU for each thigh, mean ± standard deviations (24 h)” value (Staphylococcus aureus [6]; 2 mg/kg/day) was 8.16 ± 0.13 log10 CFU. For the same molecule, the “bacteria growing values of each thigh” value (Staphylococcus aureus [6]; 6 mg/kg/day) was 1.20, the “bactericidal effect against Staphylococcus aureus in vivo in mice” value (Staphylococcus aureus [6]; 6 mg/kg/day) was “did not show bactericidal effect” and the “change values” value (Staphylococcus aureus [6]; 6 mg/kg/day) was 1.20 log10 CFU. The “log10 CFU for each thigh, mean ± standard deviations (24 h)” value (Staphylococcus aureus [6]; 6 mg/kg/day) was 7.59 ± 0.21 log10 CFU, the “change values” value (Staphylococcus aureus [6]; 18 mg/kg/day) was −1.05 log10 CFU and the “log10 CFU for each thigh, mean ± standard deviations (24 h)” value (Staphylococcus aureus [6]; 18 mg/kg/day) was 5.34 ± 0.79 log10 CFU.
For CN(C)c1cc(NC(=O)CNC(C)(C)C)c(O)c2c1C[C@H]1C[C@H]3[C@H](N(C)C)C(O)=C(C(N)=O)C(=O)[C@@]3(O)C(O)=C1C2=O [tigecycline], the MIC90 (Acinetobacter baumannii) was 4 µg/mL (≈ 6.83 µM), the MIC90 (Hemophilus influenzae) was 0.5 µg/mL (≈ 0.854 µM) and the MIC90 [3] was 1 µg/mL (≈ 1.71 µM). The MIC90 (Staphylococcus aureus [4]) was 0.5 µg/mL (≈ 0.854 µM), the MIC (Staphylococcus aureus [4]) was 0.25 µg/mL (≈ 0.427 µM) and the MIC90 [5] was 0.25 µg/mL (≈ 0.427 µM). For the same molecule, the AUC(0-inf) (in vivo; iv, 5 mg/kg) was 5120 ng·h/mL, the Vd (in vivo; iv, 5 mg/kg) was 4.47 L/kg and the clearance (in vivo; iv, 5 mg/kg) was 16.5 mL/min/kg. It also gave a half-life (in vivo; iv, 5 mg/kg) of 3.8 h, an AUC(0-inf) (in vivo; po, 10 mg/kg) of 296 ng·h/mL and a Cmax (in vivo; po, 10 mg/kg) of 31.8 ng/mL. For the same molecule, the Tmax (in vivo; po, 10 mg/kg) was 0.5 h, the bioavailability (in vivo; po, 10 mg/kg) was 1.8% and the “change values” value (Staphylococcus aureus [6]; 2 mg/kg/day) was 1.63 log10 CFU. The “log10 CFU for each thigh, mean ± standard deviations (24 h)” value (Staphylococcus aureus [6]; 2 mg/kg/day) was 8.02 ± 0.24 log10 CFU, the “bacteria growing values of each thigh” value (Staphylococcus aureus [6]; 6 mg/kg/day) was 0.63 and the “bactericidal effect against Staphylococcus aureus in vivo in mice” value (Staphylococcus aureus [6]; 6 mg/kg/day) was “did not show bactericidal effect”. For the same molecule, the “change values” value (Staphylococcus aureus [6]; 6 mg/kg/day) was 0.63 log10 CFU, the “log10 CFU for each thigh, mean ± standard deviations (24 h)” value (Staphylococcus aureus [6]; 6 mg/kg/day) was 7.02 ± 0.43 log10 CFU and the “change values” value (Staphylococcus aureus [6]; 18 mg/kg/day) was −2.19 log10 CFU. For the same molecule, the “log10 CFU for each thigh, mean ± standard deviations (24 h)” value (Staphylococcus aureus [6]; 18 mg/kg/day) was 4.20 ± 0.25 log10 CFU, the AUC ([7]; time 0-24 h) was 3550 ng·h/mL and the T1/2 [7] was 1 h. For the same molecule, the “absorption in vivo when orally used” value [8] was “can not be absorbed in vivo when orally used” and the “absorption in an oral use” value [9] was “can not be absorbed in an oral use”.
